# Entries after “also recorded” stand apart in the source; their conditions may differ.
# What was measured:
# [1] = Clinical data (CK) of statin-treated patients who gave muscle biopsies; format: in vivo, human; details: patient with muscle pain/damage concomitantly treated with the statin; one patient per line
# Experimental: The atrogin-1 mRNA levels were measured in 17 human quadriceps muscle biopsies from five patients undergoing knee replacements (controls), from four patients with muscle pain but not being treated with statins, and from eight patients with muscle pain/damage concomitantly being treated with statins (the table below).
# Muscle biopsies: Muscle was obtained from three groups of patients whose characteristics are detailed in the above table. The statin-treated group included four subjects with statin-induced myopathy and 4 with statin-induced rhabdomyolysis, as commonly defined (Antons et al., Am. J. Med. 119:400-409, 2006). The non-statin myopathy group included four statin-naïve subjects with undefined myopathy. Both of these groups underwent percutaneous muscle biopsies of the vastus lateralis muscle using a Bergstrom needle. The control group included five statin-naïve subjects who volunteered muscle at the time of knee arthroplasty. Muscle from subjects in all three groups was snap frozen in liquid nitrogen for subsequent analysis. All subjects signed an IRB-approved consent form.
# [2] = before withdrawal in August 2001; cited from earlier work
# Zebrafish embryos = experiment: Zebrafish embryo muscle fiber damage (myosin heavy chain staining); format: in vivo, Danio rerio
# Experimental: Zebrafish embryos were treated with lovastatin from 20 hpf to 32 hpf at different concentrations (0-5 μM).
# (§1) Zebrafish lines and maintenance: Adult zebrafish (Danio rerio) were maintained as described under standard laboratory conditions at 28.5° C. in a 14 h light/10 h dark cycle (Westerfield, “The zebrafish book: a guide for the laboratory use of zebrafish Danio (Brachydanio) rerio,” Institute of Neuroscience, University of Oregon, Eugene, Oreg., 1993). Developmental stages were determined by embryo morphology and hours post fertilization (hpf) (Kimmel et al., Dev. Dyn. 203:253-310, 1995). To examine the effects of statin, the embryos at 20-24 hpf were immersed in the embryonic water ([…], 170 μM KCl, 330 μM CaCl2, and 330 μM MgSO4) at a concentration of 0.005-10 μM lovastatin (Mevinolin; Sigma, St. Louis, Mo.) including 0.003% 1-phenyl-2-thiourea (Sigma) to inhibit pigmentation in 24 well plate. After 32 hpf, the embryos were fixed by 4% paraformaldehyde in PBS.
# Antibody staining: Whole zebrafish staining: Zebrafish embryos were fixed by 4% paraformaldehyde in PBS overnight. After fixation, the embryos were washed by PBS, stored for at least 1 h at −20° C. in methanol, and permeabilized for 30 min at −20° C. in acetone. Embryos were incubated with blocking buffer (1% BSA, 0.1% Tween-20 in PBS), and incubated with diluted primary antibody, anti-slow twitch myosin F59 (1: 200; Developmental Studies Hybridoma Bank (DSHB), Department of Biological Sciences, University of Iowa, Iowa City, Iowa 52242) (Crow and Stockdale, Dev. Biol. 118:333-342, 1986; and Devoto et al., Development 122:3371-3380, 1996) in blocking solution for overnight at 4° C. Staining was detected by using goat anti-mouse TRITC secondary antibody (1:200; Southern Biotechnology Associates, Inc.) in blocking solution for 4 h at RT (Birely et al., Dev. Biol. 280:162-176, 2005). Cross-sectional staining: Embryos were fixed overnight in 4% paraformaldehyde (PFA) and cryoprotected by the overnight incubation with increasing concentrations of sucrose (up to 30%). Samples were embedded in OCT compound and then equilibrated to −80° C. Sections (10 μm thick) were collected on SuperFrost/Plus slides and dried. Sections were rehydrated in PBS and blocked for 1 h in blocking buffer (1% BSA, 0.1% Tween in PBS). Sections were incubated overnight at 4° C. with primary antibody diluted in blocking buffer. Sections were stained with antibody as above.
# zebrafish atrogin-1 = experiment: Atrogin-1 mRNA and protein expression in zebrafish embryos; format: in vivo, Danio rerio; details: lovastatin treatment
# Experimental: as §1
# Western blotting: Zebrafish embryos were homogenized in SDS sample buffer (30 embryos/30 μl of sample buffer) with microfuge pestle until the lysate became uniform in consistency and there was no longer stringy inside. The lysate was boiled for 5 minutes and centrifuged supernatant was processed for Western blotting (Hanai et al., J. Cell Biol. 158:529-539, 2002).
# [3] = tested on: differentiated C2C12 mouse myocytes; experiment: C2C12 myotube morphology and diameter; format: cell-based
# Text: The effect of statins on muscle cells was studied by treating differentiated C2C12 mouse myocytes with various concentrations of lovastatin. […] The reduction of myotube size was quantitated by measurement of myotube thickness. This effect was clearly visible at low lovastatin concentrations, in the range of those typically found in patients administered with this medication (Pan et al., J. Clin. Pharmacol. 30:797-801, 2002, and Hostein et al., Cancer Chemother. Pharmacol. 57:155-164, 2006).
# Cell Culture: Mouse myoblast cell line C2C12 was purchased from ATCC (ATCC, Manassas, Va.) and maintained in DMEM (Mediatech, Herndon, Va.) containing 10% fetal bovine serum (Hyclone, Logan, Utah) and penicillin (100U) and streptomycin (50 ug/ml; Invitrogen, Grand Island, N.Y.). When C2C12 cells reach to 90% confluence, medium was replaced with differentiation medium of DMEM supplemented with 2% horse serum (ATCC, Manassas, Va.) to induce myotube formation. Cells were used for experiments in 4-5 days after differentiation. Lovastatin (>98% purity) (mevinolin; Sigma, St. Louis, Mo.) was prepared as a 50 mM stock solution in DMSO as reagent vehicle, further diluted in DMSO, and added into the medium. The final volume DMSO in medium is not more than 0.125%, which there is not obvious cytotoxicity. Equal volume of reagent vehicle was used for all experiments and reagent vehicle only serviced as controls. Each experiment was performed at least three times.
# (§2) Myotube Fiber Size: Size was quantified by measuring a total of 200 tube diameters as described by Sandri et al. (supra). Briefly, muscle fiber size from four random fields at 100 magnification was measured using IMAGE software (Scion, Frederick, Md.). All data were expressed in Mean±S.E.M. Comparisons were made by using the Student's T-test, with p<0.05 being considered statistically significant.
# functional mitochondria = experiment: MitoTracker staining and FACS of cells from zebrafish embryos; format: in vivo, Danio rerio; details: lovastatin 0.5 or 1.0 μM
# Experimental: Mitochondrial staining and FACS analysis: Embryos were treated with lovastatin (0, 0.5, 1.0 μM at 20-32 hpf) or treated with the combination of lovastatin (0.5 μM) following PGC-1α (or vehicle) cDNA injection (100 pg/embryo at the one-cell stage). 1-Phenyl-2-thiourea (0.003%; Sigma) was added at 20 hpf. After phenotypes were observed, 100 embryos from each condition were decholionated by protease and homogenized for 3-5 minutes in 0.9× phosphate buffered saline (PBS)/10% fetal bovine serum (FBS), then centrifuged at 3000 rpm for 5 minutes, digested with trypsin/EDTA and dispersed at room temperature. After adding 1 mL of 0.9×PBS/10% FBS, the dispersed cells were filtered ([…]) and washed twice with 0.9×PBS/10% FBS. The cells were incubated in 100 nM MitoTracker Red CMXRos (Invitrogen) in 0.9×PBS/10% FBS for 15 minutes in the dark. The cells were washed twice in 0.9×PBS/10% FBS and subjected to […] (FACS) analysis. EPICS XL (Beckman Coulter) was used for the fluorescence detection (absorption wavelength: 578 nm; emission wavelength: 599 nm) and data was analyzed with Expo32ADC software. Ten thousand cells were counted for each treatment condition.
# atrogin-1 (−/−) myotubes = experiment: Myotube size, atrogin-1 (-/-) primary mouse myotubes; format: cell-based; details: 0.25 and 1.0 μM
# Experimental: as §2
# Cell Culture: Primary mouse myoblasts from atrogin-1 null mice (Regeneron, Tarrytown N.Y.) were isolated as follows: muscle was removed from the hind limbs of two-week old mice. After treatment with 0.1% collagenase D and Dispase II (Roche, Indianapolis, Ind.), the isolated cells were plated on collagen (Type I, Roche, Indianapolis, Ind.)-coated dishes. Myoblasts were subsequently enriched and cultured in F-10 nutrient medium with 20% fetal calf serum and 2.5 ng/ml bFGF (Invitrogen, Grand Island, N.Y.). Myotubes were induced in differentiation medium. All media contained 1× Primocin (InvivoGen, San Diego, Calif.). The cultures were maintained at 37° C., under 5% and 8% CO2 humidified air atmosphere for myoblasts and myotubes, respectively. Cultures were ready to use in assays on day 2 in differentiation medium when the myotubes had formed and were contracting.
# [4] = tested on: atrogin-1 wildtype primary myotubes; experiment: Myotube size, wildtype primary mouse myotubes; format: cell-based; details: control (wildtype) cultures, two days of exposure
# C2C12 myotubes = experiment: Proteolytic rate in C2C12 myotubes (3H-tyrosine release); format: cell-based, mouse; details: compared with control cultures
# Experimental: Measurement of Proteolytic Rate: Differentiated C2C12 myotubes were incubated with ^3H-tyrosine (5 μCi/mL media) for 20 hours to label cell proteins, and switched to medium containing 2 mM unlabeled tyrosine, vehicle, lovastatin, or dexamethasone for another 20 hours. After media replacement, an aliquot of medium was collected once per hour for 4 hours. The collected media was treated with TCA (10% w/v final concentration) to precipitate protein. Since the high concentration of unlabeled tyrosine in the media prevents re-incorporation of ^3H-tyrosine into new protein, the radioactivity in the supernatant represent degraded protein from the pool of prelabeled, intracellular, long-lived proteins. Proteolytic rate was defined as the percentage of released radioactivity per hour calculated from the period of 20 hours to 24 hours of lovastatin or dexamethasone treatment, when ^3H-tyrosine release is linear over time. These rates were compared with proteolytic rates in parallel cultures treated with vehicle alone. All measurements were done in triplicate and then independently repeated at least twice.
# atrogin-1 mRNA = experiment: Atrogin-1 mRNA in C2C12 myocytes by real time PCR; format: cell-based, mouse; details: 10 μM
# Experimental: Quantitative PCR: Atrogin-1 mRNA levels were determined by real-time PCR using the Applied Biosystems® 7500 real-time PCR analyzer according to the method recently described by others (Okuno et al., Blood 100:4420-4426, 2002, and Yang et al., J. Cell Biochem. 94:1058-1067, 2005). Multiplexed amplification reactions were performed using 18S rRNA as an endogenous control (18S rRNA primers/VIC-labeled probe Applied Biosystems #4310893E) using the TaqMan One Step PCR Master Mix reagents Kit (#4309169, Applied Biosystems). The following settings were used: Stage 1 (reverse transcription): 48° C. for 30 min; Stage 2 (denaturation): 95° C. for 10 min; and Stage 3 (PCR): 95° C. for 15 sec and 60° C. for 60 sec for 40 cycles. […] Fluorescence data were analyzed by SDS1.7 software (Applied Biosykems). […] All RNA samples were analyzed in triplicate, with the mean value used in subsequent analyses.
# Cell Culture: Mouse myoblast cell line C2C12 was purchased from ATCC (ATCC, Manassas, Va.) and maintained in DMEM (Mediatech, Herndon, Va.) containing 10% fetal bovine serum (Hyclone, Logan, Utah) and penicillin (100U) and streptomycin (50 ug/ml; Invitrogen, Grand Island, N.Y.). […]
# Quantitative PCR: Performed as described above.
# [5] = tested on: phosphor-Akt, phosphor-FoxO3, and phosphor-p70S6K; experiment: Phosphorylated Akt/FoxO3/p70S6K in C2C12 myotubes (immunoblot); format: cell-based, mouse; details: 1, 2.5 or 5 μM, 24 hours
# Experimental: Western Blotting Cultured cells after treatment were collected at specific times and solubilized in RIPA lysis buffer (50 mM Tris-HCl, pH 7.4; 150 mM NaCl, 1% NP-40, 0.5% sodium deoxycholate, 0.1% SDS (Boston Bioproducts, Boston Mass.), protease (Roche) and phosphatase (Sigma) inhibitor cocktail). Proteins were separated by SDS-PAGE, transferred to PVDF membranes and visualized by Western blotting using alkaline phosphatase-based CDP-star chemiluminescent detection according to manufacturer's protocol (Applied Biosystems, Bedford, Mass.).
# (§3) The effect of lovastatin on FoxO-dependent activation of the atrogin-1 promoter in zebrafish embryos was also examined. Embryos were injected with a proximal fragment of the atrogin-1 promoter linked to luciferase or the same fragment with the FoxO site mutated (Sandri et al., Cell 117:399-412, 2004). Lovastatin (0.5 μM) stimulated the reporter luciferase activity more than 7-fold, while stimulating the FoxO-less reporter only 3-fold (FIG. 14B). […] Since lovastatin treatment still lead to a small amount of luciferase activity even in the absence of FoxO binding sites in the atrogin-1 promoter-reporter, additional signaling pathways may also be important in mediating the effects of statins on atrogin-1 expression in muscle.
# atrogin-1 protein = experiment: Atrogin-1 protein in C2C12 myotubes by Western blotting; format: cell-based, mouse; details: vs non-treated control cells
# Experimental: Western Blotting Cultured cells after treatment were collected at specific times and solubilized in RIPA lysis buffer (50 mM Tris-HCl, pH 7.4; 150 mM NaCl, 1% NP-40, 0.5% sodium deoxycholate, 0.1% SDS (Boston Bioproducts, Boston Mass.), protease (Roche) and phosphatase (Sigma) inhibitor cocktail). […]
# atrogin-1 promoter = experiment: Atrogin-1 promoter luciferase reporter in zebrafish embryos; format: in vivo, Danio rerio; details: 0.5 μM
# Experimental: as §3
compound,measurement,setting,value
CC(C)c1c(C(=O)Nc2ccccc2)c(-c2ccccc2)c(-c2ccc(F)cc2)n1CC[C@@H](O)C[C@@H](O)CC(=O)O [atorvastatin],CK (clinical data),[1],"Muscle pain and weakness, CK 47; also recorded: Muscle pain and weakness, CK 73"
COCc1c(C(C)C)nc(C(C)C)c(/C=C/[C@@H](O)C[C@@H](O)CC(=O)O)c1-c1ccc(F)cc1 [cerivastatin],rhabdomyolysis-related deaths,[2],approximately 100
CC[C@H](C)C(=O)O[C@H]1C[C@@H](C)C=C2C=C[C@H](C)[C@H](CC[C@@H]3C[C@@H](O)CC(=O)O3)[C@H]21 [lovastatin],muscle phenotype,"Zebrafish embryos; 0-5 μM, 20 hpf to 32 hpf",clear dose-dependent muscle phenotypes
same,embryos with class 1 defects,Zebrafish embryos; 0.05 μM,more than 50%
same,embryos with class 3 changes,Zebrafish embryos; 5 μM,over 60%
same,"concentration giving class 1 changes (bowing, gap formation, fiber disruption)",Zebrafish embryos; 20 hpf to 32 hpf,25 to 50 nM
same,"concentration giving class 2 changes (fiber thinning, attenuated MHC staining)",Zebrafish embryos; 20 hpf to 32 hpf,50 to 500 nM
same,concentration giving class 3 changes (irregular somite boundaries),Zebrafish embryos; 20 hpf to 32 hpf,1000 to 5000 nM
same,zebrafish atrogin-1 mRNA and protein level,zebrafish atrogin-1,clearly and dose-dependently elevated
same,loss of myotubes,[3]; by 5 days,almost complete loss of myotubes
same,myotube morphology / thickness,[3]; increasing concentrations (0-10 μM) vs vehicle,myotubes became progressively thinner
same,treatment time after which morphological changes were visible,[3]; myotube cultures,24 hours
same,MitoTracker fluorescence intensity,functional mitochondria,shifted to the left
same,change in myotube size,atrogin-1 (−/−) myotubes,Little change in myotube size
same,decrease of tube diameter,[4],≤ 50%
same,increase in the rate of bulk muscle proteolysis,C2C12 myotubes,5-10%
same,atrogin-1 mRNA,atrogin-1 mRNA; 6 hours,significantly increased
same,atrogin-1 mRNA induction,atrogin-1 mRNA; 36 hours,≤ 6 fold
same,phosphorylated signaling intermediates,[5],dose-dependent reduction
same,atrogin-1 induction (protein),"atrogin-1 protein; 1.0 μM, 48 hours",about 1.5 fold
same,atrogin-1 induction (protein),atrogin-1 protein; 10 μM,about 2.5 fold
same,stimulation of reporter luciferase activity,atrogin-1 promoter; FoxO-less (FoxO site mutated) reporter,3 fold
same,stimulation of reporter luciferase activity,atrogin-1 promoter; atrogin-1 promoter fragment with FoxO site,more than 7 fold
same,CK (clinical data),[1],"Weakness, CK 932"
CCC(C)(C)C(=O)O[C@H]1C[C@@H](C)C=C2C=C[C@H](C)[C@H](CC[C@@H]3C[C@@H](O)CC(=O)O3)[C@H]21 [simvastatin],CK (clinical data),[1],"Weakness, CK 51,080; also recorded: Weakness, CK 8,264; also recorded: Weakness, CK 39,000; also recorded: Muscle pain and weakness, CK 62; also recorded: Muscle pain and weakness, CK 649"
